Measurements reported in publication PMC11335209, “Aqp4a and Trpv4 mediate regulatory cell volume increase for swimming maintenance of marine fish spermatozoa” (Cellular and Molecular Life Sciences: CMLS, 2024).

How the values were obtained:
Type in all cases: cell-based
Trpv4_v1 = target: T1, Trpv4_v1 (Sparus aurata, UniProt A0A671Y4W2); assay: two-electrode voltage clamp in Xenopus oocytes, constitutive current at -85 mV
T1 construct: gene trpv4; full-length cDNA from testis in pT7Ts; cRNA expressed alone in Xenopus laevis oocytes; calculated monomer 99 kDa
T1 sequence (A0A671Y4W2 1-876): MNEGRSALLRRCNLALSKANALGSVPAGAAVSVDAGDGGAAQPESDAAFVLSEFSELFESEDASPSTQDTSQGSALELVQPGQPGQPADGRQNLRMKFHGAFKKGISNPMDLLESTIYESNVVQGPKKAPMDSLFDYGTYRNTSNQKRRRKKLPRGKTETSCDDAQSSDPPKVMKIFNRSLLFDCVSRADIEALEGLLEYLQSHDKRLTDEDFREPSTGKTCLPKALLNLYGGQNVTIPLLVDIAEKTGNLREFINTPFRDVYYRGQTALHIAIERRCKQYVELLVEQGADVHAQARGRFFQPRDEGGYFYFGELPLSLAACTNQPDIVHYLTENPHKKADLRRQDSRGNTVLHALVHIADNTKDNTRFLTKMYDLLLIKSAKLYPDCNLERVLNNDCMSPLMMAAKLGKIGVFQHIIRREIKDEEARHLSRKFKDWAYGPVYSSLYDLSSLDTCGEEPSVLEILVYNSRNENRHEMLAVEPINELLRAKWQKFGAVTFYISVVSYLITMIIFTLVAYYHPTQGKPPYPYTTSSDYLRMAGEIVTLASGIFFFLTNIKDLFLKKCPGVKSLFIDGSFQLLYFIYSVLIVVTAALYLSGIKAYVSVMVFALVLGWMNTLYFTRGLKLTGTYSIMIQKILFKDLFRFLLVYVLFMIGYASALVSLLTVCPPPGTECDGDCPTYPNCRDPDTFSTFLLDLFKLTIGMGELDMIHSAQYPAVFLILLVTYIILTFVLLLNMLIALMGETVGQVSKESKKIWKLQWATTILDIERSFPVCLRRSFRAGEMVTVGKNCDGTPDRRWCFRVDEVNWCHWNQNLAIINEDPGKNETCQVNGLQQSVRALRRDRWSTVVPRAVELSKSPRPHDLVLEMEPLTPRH

Trpv4_v10 = target: T2, Trpv4_v10 (Sparus aurata, UniProt A0A671Y517); assay: as above
T2 construct: gene trpv4; synthesized full-length splice-variant cDNA in pT7Ts; cRNA expressed alone in Xenopus laevis oocytes; divergent N-terminus
T2 sequence (A0A671Y517 1-877): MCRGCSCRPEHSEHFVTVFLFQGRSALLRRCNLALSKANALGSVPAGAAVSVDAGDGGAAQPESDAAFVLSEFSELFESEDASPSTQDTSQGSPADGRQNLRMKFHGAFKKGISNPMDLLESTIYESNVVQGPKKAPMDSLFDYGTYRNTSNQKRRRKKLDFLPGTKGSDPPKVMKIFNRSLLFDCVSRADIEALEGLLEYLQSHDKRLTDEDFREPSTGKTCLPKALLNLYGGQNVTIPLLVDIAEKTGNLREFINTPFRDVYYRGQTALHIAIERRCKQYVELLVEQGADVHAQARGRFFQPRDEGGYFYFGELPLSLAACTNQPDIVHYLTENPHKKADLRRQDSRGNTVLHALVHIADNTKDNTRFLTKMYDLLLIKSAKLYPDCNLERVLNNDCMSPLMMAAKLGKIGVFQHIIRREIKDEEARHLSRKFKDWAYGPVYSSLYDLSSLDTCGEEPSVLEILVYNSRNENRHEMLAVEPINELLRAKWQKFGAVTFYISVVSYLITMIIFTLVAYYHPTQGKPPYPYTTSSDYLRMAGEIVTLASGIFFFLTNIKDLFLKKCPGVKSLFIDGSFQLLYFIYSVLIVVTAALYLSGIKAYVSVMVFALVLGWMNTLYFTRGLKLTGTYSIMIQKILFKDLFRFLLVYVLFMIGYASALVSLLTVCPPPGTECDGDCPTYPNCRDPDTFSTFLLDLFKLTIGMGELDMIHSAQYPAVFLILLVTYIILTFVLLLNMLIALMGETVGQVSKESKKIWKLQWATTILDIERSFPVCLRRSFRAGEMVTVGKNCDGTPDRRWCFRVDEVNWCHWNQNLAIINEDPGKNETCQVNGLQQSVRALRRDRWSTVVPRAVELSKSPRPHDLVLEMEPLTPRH

Aqp4a-M43 = target: T3, Aqp4a-M43 (Sparus aurata, UniProt A0A678R2D9); assay: oocyte swelling assay (osmotic water permeability Lp); settings: 5 min pretreatment, hyposmotic challenge -100 mOsm, pH 7.4
T3 construct: gene Aqp4; short isoform starting at Met-43, 31 kDa; cRNA expressed in Xenopus laevis oocytes

[1] = 5 min exposure, isosmotic 220 mOsm, pH 7.4, room temperature

T3 sequence (A0A678R2D9 entry or part of it): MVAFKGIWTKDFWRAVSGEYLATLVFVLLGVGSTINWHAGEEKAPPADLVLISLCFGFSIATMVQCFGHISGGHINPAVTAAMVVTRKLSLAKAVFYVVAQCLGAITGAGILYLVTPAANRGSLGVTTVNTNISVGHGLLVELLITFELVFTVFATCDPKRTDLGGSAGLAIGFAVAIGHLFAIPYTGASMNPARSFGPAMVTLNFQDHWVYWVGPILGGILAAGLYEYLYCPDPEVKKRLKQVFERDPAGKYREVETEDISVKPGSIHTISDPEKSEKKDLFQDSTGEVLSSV

`Cc1c(C(=O)Nc2cccc(C(F)(F)F)c2)cc(-c2ccccc2)n1CCCN1CCOCC1` [HC-067047] showed an inhibition at 10 µM (Trpv4_v1) of ~8% and an inhibition at 10 µM (Trpv4_v10) of ~8%.

For `CC(C)NCCN(C(C)C)S(=O)(=O)c1ccc(Cl)cc1Cl` [RN-1734], the inhibition at 100 µM (Trpv4_v1) was ~40% and the inhibition at 100 µM (Trpv4_v10) was ~9%.

For `O=C(Nc1nncs1)c1cccnc1` [TGN-020, 2-(Nicotinamide)-1,3,4-thiadiazole], the “% reduction of Lp at 20 μM” value (Aqp4a-M43) was ~ 82%.

With `N.N.N.N.N.N.N.N.N.N.N.N.N.N.[Cl-].[Cl-].[Cl-].[Cl-].[Cl-].[Cl-].[O-2].[O-2].[Ru+3].[Ru+3].[Ru+4]` [ruthenium red] the “% inhibition at 10 μM” value (Trpv4_v1; [1]) was ~ 28% and the “% inhibition at 10 μM” value (Trpv4_v10; [1]) was ~ 5%.
